Data published in the supplement of paper PMC10307832.

Legend:
Assay in all cases: relative viability (nuclei count vs DMSO), 5 days (fraction); higher = more cells survive
BI-D1870 + Palbociclib = compound: CC(C)CCN1c2nc(Nc3cc(F)c(O)c(F)c3)ncc2N(C)C(=O)C1C [BI-D1870] + CC(=O)c1c(C)c2cnc(Nc3ccc(N4CCNCC4)cn3)nc2n(C2CCCC2)c1=O [Palbociclib] (partner 0.5 µM)
Method in brief: (§1)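 Lung cancer cell lines in 1536-well plates got either a single drug or a fixed anchor-drug dose together with five library-drug doses (not always all listed) in √10 steps, by pin tool, on the day after seeding. Nuclei were counted after 5 days, and relative viability is the treated-to-vehicle ratio of nuclei counts. Values are medians of duplicate plates.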

BI-D1870 + Alpelisib = compound: CC(C)CCN1c2nc(Nc3cc(F)c(O)c(F)c3)ncc2N(C)C(=O)C1C [BI-D1870] + Cc1nc(NC(=O)N2CCC[C@H]2C(N)=O)sc1-c1ccnc(C(C)(C)C(F)(F)F)c1 [Alpelisib] (partner 2 µM)
Method in brief: as §1

Zebularine + Pictilisib = compound: O=c1ncccn1[C@@H]1O[C@H](CO)[C@@H](O)[C@H]1O [Zebularine] + CS(=O)(=O)N1CCN(Cc2cc3nc(-c4cccc5[nH]ncc45)nc(N4CCOCC4)c3s2)CC1 [Pictilisib] (partner 1 µM)
Method in brief: as §1

Zebularine + Pemetrexed = compound: O=c1ncccn1[C@@H]1O[C@H](CO)[C@@H](O)[C@H]1O [Zebularine] + Nc1nc2[nH]cc(CCc3ccc(C(=O)N[C@@H](CCC(=O)O)C(=O)O)cc3)c2c(=O)[nH]1 [Pemetrexed] (partner 0.2 µM)
Method in brief: as §1

NCI-H2009
relative viability (BI-D1870 + Palbociclib; first compound 0.04 µM): 0.22
relative viability (BI-D1870 + Palbociclib; first compound 0.1265 µM): 0.169
relative viability (BI-D1870 + Palbociclib; first compound 0.4 µM): 0.229
relative viability (BI-D1870 + Palbociclib; first compound 1.265 µM): 0.179
relative viability (BI-D1870 + Palbociclib; first compound 4 µM): 0.148
relative viability (BI-D1870 + Alpelisib; first compound 0.04 µM): 1.28
relative viability (BI-D1870 + Alpelisib; first compound 0.1265 µM): 1.13
relative viability (BI-D1870 + Alpelisib; first compound 0.4 µM): 1.21
relative viability (BI-D1870 + Alpelisib; first compound 1.265 µM): 0.995
relative viability (BI-D1870 + Alpelisib; first compound 4 µM): 0.885
relative viability (Zebularine + Pictilisib; first compound 1 µM): 0.838
relative viability (Zebularine + Pictilisib; first compound 3.162 µM): 0.782
relative viability (Zebularine + Pictilisib; first compound 10 µM): 0.614
relative viability (Zebularine + Pictilisib; first compound 31.62 µM): 0.68
relative viability (Zebularine + Pictilisib; first compound 100 µM): 0.37
relative viability (Zebularine + Pemetrexed; first compound 1 µM): 1.12
relative viability (Zebularine + Pemetrexed; first compound 3.162 µM): 0.962
relative viability (Zebularine + Pemetrexed; first compound 10 µM): 0.767
relative viability (Zebularine + Pemetrexed; first compound 31.62 µM): 0.675
relative viability (Zebularine + Pemetrexed; first compound 100 µM): 0.211

HCC-15
relative viability (BI-D1870 + Palbociclib; first compound 0.04 µM): 0.701
relative viability (BI-D1870 + Palbociclib; first compound 0.1265 µM): 0.64
relative viability (BI-D1870 + Palbociclib; first compound 0.4 µM): 0.722
relative viability (BI-D1870 + Palbociclib; first compound 1.265 µM): 0.746
relative viability (BI-D1870 + Palbociclib; first compound 4 µM): 0.681
relative viability (BI-D1870 + Alpelisib; first compound 0.04 µM): 0.907
relative viability (BI-D1870 + Alpelisib; first compound 0.1265 µM): 0.812
relative viability (BI-D1870 + Alpelisib; first compound 0.4 µM): 0.882
relative viability (BI-D1870 + Alpelisib; first compound 1.265 µM): 0.861
relative viability (BI-D1870 + Alpelisib; first compound 4 µM): 0.646
relative viability (Zebularine + Pictilisib; first compound 1 µM): 0.826
relative viability (Zebularine + Pictilisib; first compound 3.162 µM): 0.424
relative viability (Zebularine + Pictilisib; first compound 10 µM): 0.536
relative viability (Zebularine + Pictilisib; first compound 31.62 µM): 0.666
relative viability (Zebularine + Pictilisib; first compound 100 µM): 0.249
relative viability (Zebularine + Pemetrexed; first compound 1 µM): 0.23
relative viability (Zebularine + Pemetrexed; first compound 3.162 µM): 0.213
relative viability (Zebularine + Pemetrexed; first compound 10 µM): 0.201
relative viability (Zebularine + Pemetrexed; first compound 31.62 µM): 0.219
relative viability (Zebularine + Pemetrexed; first compound 100 µM): 0.186

HCC-44
relative viability (BI-D1870 + Palbociclib; first compound 0.04 µM): 0.966
relative viability (BI-D1870 + Palbociclib; first compound 0.1265 µM): 0.901
relative viability (BI-D1870 + Palbociclib; first compound 0.4 µM): 0.919
relative viability (BI-D1870 + Palbociclib; first compound 1.265 µM): 1.01
relative viability (BI-D1870 + Palbociclib; first compound 4 µM): 0.946
relative viability (BI-D1870 + Alpelisib; first compound 0.04 µM): 0.911
relative viability (BI-D1870 + Alpelisib; first compound 0.1265 µM): 0.817
relative viability (BI-D1870 + Alpelisib; first compound 0.4 µM): 0.846
relative viability (BI-D1870 + Alpelisib; first compound 1.265 µM): 0.695
relative viability (BI-D1870 + Alpelisib; first compound 4 µM): 0.595
relative viability (Zebularine + Pictilisib; first compound 1 µM): 0.535
relative viability (Zebularine + Pictilisib; first compound 3.162 µM): 0.648
relative viability (Zebularine + Pictilisib; first compound 10 µM): 0.375
relative viability (Zebularine + Pictilisib; first compound 31.62 µM): 0.625
relative viability (Zebularine + Pictilisib; first compound 100 µM): 0.323
relative viability (Zebularine + Pemetrexed; first compound 1 µM): 0.723
relative viability (Zebularine + Pemetrexed; first compound 3.162 µM): 0.625
relative viability (Zebularine + Pemetrexed; first compound 10 µM): 0.646
relative viability (Zebularine + Pemetrexed; first compound 31.62 µM): 0.679
relative viability (Zebularine + Pemetrexed; first compound 100 µM): 0.445

COR-L23
relative viability (BI-D1870 + Palbociclib; first compound 0.04 µM): 0.281
relative viability (BI-D1870 + Palbociclib; first compound 0.1265 µM): 0.24
relative viability (BI-D1870 + Palbociclib; first compound 0.4 µM): 0.315
relative viability (BI-D1870 + Palbociclib; first compound 1.265 µM): 0.257
relative viability (BI-D1870 + Palbociclib; first compound 4 µM): 0.278
relative viability (BI-D1870 + Alpelisib; first compound 0.04 µM): 0.978
relative viability (BI-D1870 + Alpelisib; first compound 0.1265 µM): 0.731
relative viability (BI-D1870 + Alpelisib; first compound 0.4 µM): 0.875
relative viability (BI-D1870 + Alpelisib; first compound 1.265 µM): 0.722
relative viability (BI-D1870 + Alpelisib; first compound 4 µM): 0.449
relative viability (Zebularine + Pictilisib; first compound 1 µM): 0.926
relative viability (Zebularine + Pictilisib; first compound 3.162 µM): 0.776
relative viability (Zebularine + Pictilisib; first compound 10 µM): 0.291
relative viability (Zebularine + Pictilisib; first compound 31.62 µM): 0.287
relative viability (Zebularine + Pictilisib; first compound 100 µM): 0.24
relative viability (Zebularine + Pemetrexed; first compound 1 µM): 0.201
relative viability (Zebularine + Pemetrexed; first compound 3.162 µM): 0.199
relative viability (Zebularine + Pemetrexed; first compound 10 µM): 0.193
relative viability (Zebularine + Pemetrexed; first compound 31.62 µM): 0.207
relative viability (Zebularine + Pemetrexed; first compound 100 µM): 0.168

HCC-78
relative viability (BI-D1870 + Palbociclib; first compound 0.04 µM): 0.456
relative viability (BI-D1870 + Palbociclib; first compound 0.1265 µM): 0.489
relative viability (BI-D1870 + Palbociclib; first compound 0.4 µM): 0.405
relative viability (BI-D1870 + Palbociclib; first compound 1.265 µM): 0.462
relative viability (BI-D1870 + Palbociclib; first compound 4 µM): 0.454
relative viability (BI-D1870 + Alpelisib; first compound 0.04 µM): 0.323
relative viability (BI-D1870 + Alpelisib; first compound 0.1265 µM): 0.279
relative viability (BI-D1870 + Alpelisib; first compound 0.4 µM): 0.301
relative viability (BI-D1870 + Alpelisib; first compound 1.265 µM): 0.321
relative viability (BI-D1870 + Alpelisib; first compound 4 µM): 0.246
relative viability (Zebularine + Pictilisib; first compound 1 µM): 0.223
relative viability (Zebularine + Pictilisib; first compound 3.162 µM): 0.192
relative viability (Zebularine + Pictilisib; first compound 10 µM): 0.211
relative viability (Zebularine + Pictilisib; first compound 31.62 µM): 0.254
relative viability (Zebularine + Pictilisib; first compound 100 µM): 0.197
relative viability (Zebularine + Pemetrexed; first compound 1 µM): 0.88
relative viability (Zebularine + Pemetrexed; first compound 3.162 µM): 0.941
relative viability (Zebularine + Pemetrexed; first compound 31.62 µM): 0.882
relative viability (Zebularine + Pemetrexed; first compound 100 µM): 0.978

NCI-H2087
relative viability (BI-D1870 + Palbociclib; first compound 0.04 µM): 0.239
relative viability (BI-D1870 + Palbociclib; first compound 0.1265 µM): 0.2
relative viability (BI-D1870 + Palbociclib; first compound 0.4 µM): 0.265
relative viability (BI-D1870 + Palbociclib; first compound 1.265 µM): 0.196
relative viability (BI-D1870 + Palbociclib; first compound 4 µM): 0.208
relative viability (BI-D1870 + Alpelisib; first compound 0.04 µM): 1.15
relative viability (BI-D1870 + Alpelisib; first compound 0.1265 µM): 1.05
relative viability (BI-D1870 + Alpelisib; first compound 0.4 µM): 1.09
relative viability (BI-D1870 + Alpelisib; first compound 1.265 µM): 1.23
relative viability (BI-D1870 + Alpelisib; first compound 4 µM): 0.877
relative viability (Zebularine + Pictilisib; first compound 1 µM): 0.92
relative viability (Zebularine + Pictilisib; first compound 3.162 µM): 0.703
relative viability (Zebularine + Pictilisib; first compound 10 µM): 0.583
relative viability (Zebularine + Pictilisib; first compound 31.62 µM): 0.752
relative viability (Zebularine + Pictilisib; first compound 100 µM): 0.368
relative viability (Zebularine + Pemetrexed; first compound 1 µM): 0.722
relative viability (Zebularine + Pemetrexed; first compound 3.162 µM): 0.667
relative viability (Zebularine + Pemetrexed; first compound 10 µM): 0.511
relative viability (Zebularine + Pemetrexed; first compound 31.62 µM): 0.548
relative viability (Zebularine + Pemetrexed; first compound 100 µM): 0.216

BEN
relative viability (BI-D1870 + Palbociclib; first compound 0.04 µM): 0.486
relative viability (BI-D1870 + Palbociclib; first compound 0.1265 µM): 0.45
relative viability (BI-D1870 + Palbociclib; first compound 0.4 µM): 0.472
relative viability (BI-D1870 + Palbociclib; first compound 1.265 µM): 0.46
relative viability (BI-D1870 + Palbociclib; first compound 4 µM): 0.423
relative viability (BI-D1870 + Alpelisib; first compound 0.04 µM): 1.1
relative viability (BI-D1870 + Alpelisib; first compound 0.1265 µM): 0.914
relative viability (BI-D1870 + Alpelisib; first compound 0.4 µM): 1
relative viability (BI-D1870 + Alpelisib; first compound 1.265 µM): 1.13
relative viability (BI-D1870 + Alpelisib; first compound 4 µM): 0.884
relative viability (Zebularine + Pictilisib; first compound 1 µM): 0.56
relative viability (Zebularine + Pictilisib; first compound 3.162 µM): 0.504
relative viability (Zebularine + Pictilisib; first compound 10 µM): 0.291
relative viability (Zebularine + Pictilisib; first compound 31.62 µM): 0.385
relative viability (Zebularine + Pictilisib; first compound 100 µM): 0.3
relative viability (Zebularine + Pemetrexed; first compound 1 µM): 0.943
relative viability (Zebularine + Pemetrexed; first compound 3.162 µM): 0.636
relative viability (Zebularine + Pemetrexed; first compound 10 µM): 0.584
relative viability (Zebularine + Pemetrexed; first compound 31.62 µM): 0.562
relative viability (Zebularine + Pemetrexed; first compound 100 µM): 0.306

LCLC-103H
relative viability (BI-D1870 + Palbociclib; first compound 0.04 µM): 0.475
relative viability (BI-D1870 + Palbociclib; first compound 0.1265 µM): 0.471
relative viability (BI-D1870 + Palbociclib; first compound 0.4 µM): 0.439
relative viability (BI-D1870 + Palbociclib; first compound 1.265 µM): 0.409
relative viability (BI-D1870 + Palbociclib; first compound 4 µM): 0.379
relative viability (BI-D1870 + Alpelisib; first compound 0.04 µM): 0.96
relative viability (BI-D1870 + Alpelisib; first compound 0.1265 µM): 0.937
relative viability (BI-D1870 + Alpelisib; first compound 0.4 µM): 0.864
relative viability (BI-D1870 + Alpelisib; first compound 1.265 µM): 1.1
relative viability (BI-D1870 + Alpelisib; first compound 4 µM): 0.874
relative viability (Zebularine + Pictilisib; first compound 1 µM): 0.564
relative viability (Zebularine + Pictilisib; first compound 3.162 µM): 0.603
relative viability (Zebularine + Pictilisib; first compound 10 µM): 0.513
relative viability (Zebularine + Pictilisib; first compound 31.62 µM): 0.612
relative viability (Zebularine + Pictilisib; first compound 100 µM): 0.553
relative viability (Zebularine + Pemetrexed; first compound 1 µM): 0.459
relative viability (Zebularine + Pemetrexed; first compound 3.162 µM): 0.443
relative viability (Zebularine + Pemetrexed; first compound 10 µM): 0.388
relative viability (Zebularine + Pemetrexed; first compound 31.62 µM): 0.504
relative viability (Zebularine + Pemetrexed; first compound 100 µM): 0.443
